Test system: not listed separately
Assay: Log P by HPLC on reversed phase columns (EEC directive 79/831 Annex V.A8)
Type: physicochemical
Settings: not given
Method: Measurement of Log P values was performed according to EEC directive 79/831 Annex V.A8 by HPLC (High Performance Liquid Chromatography) on reversed phase columns with the following methods:
[^a] Log P value is determined by measurement of LC-UV, in an acidic range, with 0.1% formic acid in water and acetonitrile as eluent (linear gradient from 10% acetonitrile to 95% acetonitrile).
[^b] Log P value is determined by measurement of LC-UV, in a neutral range, with 0.001 molar ammonium acetate solution in water and acetonitrile as eluent (linear gradient from 10% acetonitrile to 95% acetonitrile).
[^c] Log P value is determined by measurement of LC-UV, in an acidic range, with 0.1% phosphoric acid and acetonitrile as eluent (linear gradient from 10% acetonitrile to 95% acetonitrile).
Calibration was done with straight-chain alkan-2-ones (with 3 to 16 carbon atoms) with known Log P values (measurement of Log P values using retention times with linear interpolation between successive alkanones). Lambda-max-values were determined using UV-spectra from 200 nm to 400 nm and the peak values of the chromatographic signals.
In the case of `C#CCOc1cccc(Cl)c1Nc1c(-c2ccc(F)cc2F)c(C)nn1C` [Example I-67], the “LogP [a]” value is reported as 3.26^[a].
With `C=CCOc1cc(F)c(N=C=S)c(F)c1` [Z-ii-01] the “LogP [a]” value was 4.54^[a].
With `C#CCOc1cc(F)c(N=C=S)c(F)c1` [Z-ii-02] the “LogP [a]” value was 3.86^[a].
For `C=CCOc1ccc(N=C=S)cc1` [Z-ii-05], the “LogP [a]” value was 4.06 and the “LogP [b]” value was 4.09.
With `C=CCOc1ccc(N=C=S)cc1F` [Z-ii-06] the “LogP [a]” value was 4.06^[a].
For `C=CCOc1ccc(F)c(N=C=S)c1` [Z-ii-07], the “LogP [a]” value was 4.30^[a].
For `C#CCOc1ccc(F)c(N=C=S)c1` [Z-ii-08], the “LogP [a]” value was 3.62^[a].
With `C#CCOc1cc(F)c(N=C=S)cc1F` [Z-ii-09] the “LogP [a]” value was 3.64^[a].
In the case of `C=CCOc1cc(F)c(N=C=S)cc1F` [Z-ii-10], the “LogP [a]” value is reported as 4.24^[a].
For `C#CCOc1ccc(N=C=S)cc1F` [Z-ii-11], the “LogP [a]” value was 3.47^[a].
With `C#CCOc1ccc(N=C=S)c(Cl)c1` [Z-ii-12] the “LogP [a]” value was 3.99 and the “LogP [b]” value was 3.96.
For `C=CCOc1ccc(N=C=S)c(Cl)c1` [Z-ii-13], the “LogP [a]” value was 4.72^[a]; 4.72^[b] and the “LogP [b]” value was 4.72^[a]; 4.72^[b].
In the case of `C#CCOc1cccc(Cl)c1N=C=S` [Z-ii-14], the “LogP [a]” value is reported as 3.86^[a].
With `C=CCOc1ccc(F)cc1N=C=S` [Z-ii-16] the “LogP [a]” value was 4.24^[a].
In the case of `C#CCOc1ccc(F)cc1N=C=S` [Z-ii-17], the “LogP [a]” value is reported as 3.62^[a].
For `C#CCOc1cc(C)ccc1N=C=S` [Z-ii-18], the “LogP [a]” value was 3.82^[a].
With `C=CCOc1ccc(C#N)cc1N=C=S` [Z-ii-19] the “LogP [a]” value was 3.71^[a].
For `C#CCOc1ccc(C#N)cc1N=C=S` [Z-ii-20], the “LogP [a]” value was 3.13^[a].
With `C#CCOc1cc(F)cc(F)c1NC(=S)C(C(C)=O)c1ccc(F)cc1Cl` (stereo not shown) [Z-ix-03] the “LogP [a]” value was 3.65^[a].

Same assay, conditions: LC-UV, acidic range, 0.1% formic acid in water and acetonitrile as eluent; read-out: LogP [a]
In the case of `C#CCOc1cc(F)cc(F)c1N=C=S` [Z-ii-03, 3,5-difluoro-2-isothiocyanatophenyl prop-2-yn-1-yl ether], the chromatographic logP is reported as 3.68.
For `C=CCOc1ccc(CC(C)=O)c(F)c1` [Z-iv-01, 1-[4-(allyloxy)-2-fluorophenyl]acetone], the chromatographic logP was 2.6.
Work on `COc1ccc(CC(C)=O)c(F)c1` [Z-iv-02, 1-(2-fluoro-4-methoxyphenyl)acetone] yielded a chromatographic logP of 1.95.

Same assay, conditions: pH 2.3; read-out: log P (pH 2.3)
`C#CCOc1cc(F)cc(F)c1N=C=S` [Z-ii-03, 3,5-difluoro-2-isothiocyanatophenyl prop-2-yn-1-yl ether] gave a chromatographic logP of 3.72.

Same assay, conditions: reversed phase HPLC columns, LC-UV, acidic range, 0.1% formic acid in water and acetonitrile as eluent; read-out: LogP [a]
Compound `C#CCOc1cc(F)cc(F)c1Nc1c(-c2ccc(F)cc2Cl)c(C)nn1C` [Example I-01] has a chromatographic logP of 3.26.

Same assay, conditions: reversed phase HPLC columns, LC-UV, acidic range, 0.1% phosphoric acid and acetonitrile as eluent; read-out: LogP [c]
With `C#CCOc1cc(F)cc(F)c1Nc1c(-c2ccc(F)cc2Cl)c(C)nn1C` [Example I-01] the chromatographic logP was 3.1.

Test system: Alternaria solani
Assay: Biological Example C1 (comparative): in vivo preventive test on Alternaria solani (tomatoes)
Settings: rate of application 50 ppm, evaluated 3 days after inoculation
Method: (§1) To produce a suitable preparation of active compound, 1 part by weight of active compound is mixed with the stated amounts of solvent and emulsifier, and the concentrate is diluted with water to the desired concentration.
(§2) To test for preventive activity, young plants are sprayed with the preparation of active compound at the stated rate of application. After the spray coating has dried on, the plants are inoculated with an aqueous spore suspension of Alternaria solani. The plants are then placed in an incubation cabinet at approximately 20° C. and a relative atmospheric humidity of 100%.
The test is evaluated 3 days after the inoculation. 0% means an efficacy which corresponds to that of the untreated control while an efficacy of 100% means that no disease is observed.
With `C#CCOc1cc(F)cc(F)c1Nc1c(-c2ccc(F)cc2Cl)c(C)nn1C` [Example I-01] the Efficacy in % was 96%.
With `CCCOc1cc(F)cc(F)c1Nc1c(-c2ccc(F)cc2Cl)c(C)nn1C` [drawing 18, reference compound] the Efficacy in % was 40%.

Test system: Phakopsora pachyrhizi
Assay: Biological Example C2 (comparative): in vivo preventive test on Phakopsora pachyrhizi (soybeans)
Settings: rate of application 250 ppm, evaluated 7 days after inoculation
Method: as §1
To test for preventive activity, young plants are sprayed with the preparation of active compound at the stated rate of application. After the spray coating has dried on, the plants are inoculated with an aqueous spore suspension of the causal agent of soybean rust (Phakopsora pachyrhizi) and stay for 24 h without light in an incubation cabinet at approximately 24° C. and a relative atmospheric humidity of 95%. The plants remain in the incubation cabinet at approximately 24° C. and a relative atmospheric humidity of approximately 80% and a day/night interval of 12 h.
(§3) The test is evaluated 7 days after the inoculation. 0% means an efficacy which corresponds to that of the untreated control, while an efficacy of 100% means that no disease is observed.
Work on `C#CCOc1cc(F)cc(F)c1Nc1c(-c2ccc(F)cc2Cl)c(C)nn1C` [Example I-01] yielded an Efficacy in % of 94%.
For `CCCOc1cc(F)cc(F)c1Nc1c(-c2ccc(F)cc2Cl)c(C)nn1C` [drawing 20, reference compound], the Efficacy in % was 53%.

Test system: Sphaerotheca fuliginea
Assay: Biological Example C3 (comparative): in vivo preventive test on Sphaerotheca fuliginea (cucumbers)
Settings: rate of application 50 ppm, evaluated 7 days after inoculation
Method: as §1
as §2, with “Sphaerotheca fuliginea.” for “Alternaria solani.”, “a greenhouse” for “an incubation cabinet”, “23°” for “20°”, “approximately 70%.” for “100%.”
as §3
Work on `C#CCOc1cc(F)cc(F)c1Nc1c(-c2ccc(F)cc2Cl)c(C)nn1C` [Example I-01] yielded an Efficacy in % of 98%.
`CCCOc1cc(F)cc(F)c1Nc1c(-c2ccc(F)cc2Cl)c(C)nn1C` [drawing 22, reference compound] gave an Efficacy in % of 10%.
